A word on the IC50: it is the concentration at which inhibition is half-maximal.

Chain of human FP receptor (P43088 whole entry): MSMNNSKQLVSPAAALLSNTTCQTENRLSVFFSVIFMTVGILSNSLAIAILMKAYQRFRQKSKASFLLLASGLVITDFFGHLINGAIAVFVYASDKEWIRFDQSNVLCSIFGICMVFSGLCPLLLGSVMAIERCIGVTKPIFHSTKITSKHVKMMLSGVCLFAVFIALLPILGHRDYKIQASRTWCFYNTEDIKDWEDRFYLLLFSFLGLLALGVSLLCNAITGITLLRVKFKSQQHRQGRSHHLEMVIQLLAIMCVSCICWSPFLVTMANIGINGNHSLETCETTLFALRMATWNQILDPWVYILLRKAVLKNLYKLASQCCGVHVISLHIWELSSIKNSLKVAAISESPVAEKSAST

This assay concerns the target human FP receptor (Homo sapiens (Human), UniProt P43088). Put plainly: In vitro test of inhibition of human FP receptor activity (PGF2α-induced calcium flux in FP-expressing CHEM1 cells). The class given is cell-based. The settings on record: PGF2α-induced (3 nM) calcium flux, some as mean values from multiple independent determinations. The text has this:
• CRTH2 chemoattractant receptor-homologous molecule expressed on T helper type 2 cells • DMEM Dulbecco's modified Eagle's medium • DMSO dimethyl sulfoxide • DP PGD2 receptor • EC50 half-maximum effective concentration • Em emission • EP PGE2 receptor • Ex excitation • from Company (source) • FCS fetal calf serum • FP PGF2α receptor • HEPES 2-[4-(2-hydroxyethyl)piperazin-1-yl]ethanesulfonic acid • IC50 half-maximum inhibitory concentration • IP PGI2 receptor • MES 2-(N-morpholino)ethanesulfonic acid • Pen/Strep penicillin/streptomycin • PGD2 prostaglandin D2 • PGE2 prostaglandin E2 • PGF2α prostaglandin F2α • PGI2 prostaglandin I2 • TC tissue culture • TP thromboxane A2 receptor • Tris tris(hydroxymethyl)aminomethane • v/v volume to volume ratio (of a solution) • w/w weight to weight ratio (of a solution) B-1. In Vitro Test of Inhibition of Human FP Receptor Activity
For the characterization of test substances in respect of FP antagonism, PGF2α-induced calcium flux in FP-expressing CHEM1 cells (Millipore, HTS093C) was used.
Prior to the measurement, the medium is replaced by 30 μl of Fluo-8 AM loading buffer [calcium-free Tyrode (130 mM NaCl, 5 mM KCl, 20 mM HEPES, 1 mM MgCl2, 4.8 mM NaHCO3, pH 7.4), 2 mM CaCl2, 1× SmartBlock (from CANDOR Bioscience GmbH), 4.5 mM Probenecid, 5 μM Fluo-8 AM, 0.016% Pluronic®, 0.04% Brilliant black] and incubated at 37° C./5% CO2 for 30 minutes. […] 10 μl of the prediluted substance solution are added to the Fluo-8-laden cells and incubated at 37° C./5% CO2 for 10 minutes. The FP receptor is activated by adding 20 μl of 3 nM (final concentration) PGF2α in calcium-free Tyrode/2 mM CaCl2/0.04% Brilliant black, and the calcium flux is determined by measuring the fluorescence at ex. 470 nm/[…].
Table 1 below lists the IC50 values from this assay for individual working examples of the invention (some as mean values from multiple independent individual determinations): […]
On the technique in general: Calcium flux is commonly read through the fluorescence of an indicator in the cells.
Consider `COc1cccc(-c2nc3ccc(Br)cc3c(C(=O)NC34CCC(C(=O)O)(CC3)CC4)c2C)c1` [Example 26, 4-({[6-Bromo-2-(3-methoxyphenyl)-3-methylquinolin-4-yl]carbonyl}amino)bicyclo[2.2.2]octane-1-carboxylic acid], for which the IC50 was 114 nM. With `CSc1c(-c2ccccc2)nc2ccc(Br)cc2c1C(=O)NC12CCC(C(=O)O)(CC1)CC2` [Example 27, 4-({[6-Bromo-3-(methylsulfanyl)-2-phenylquinolin-4-yl]carbonyl}amino)bicyclo[2.2.2]octane-1-carboxylic acid], the IC50 came to 74 nM. The same measure for `CCc1c(-c2ccccc2)nc2ccc(Br)cc2c1C(=O)NC12CCC(C(=O)O)(CC1)CC2` [Example 28, 4-{[(6-Bromo-3-ethyl-2-phenylquinolin-4-yl)carbonyl]amino}bicyclo[2.2.2]octane-1-carboxylic acid]: 220 nM; for `O=C(NC12CCC(C(=O)O)(CC1)CC2)c1c(C2CC2)c(-c2ccccc2)nc2ccc(Br)cc12` [Example 29, 4-{[(6-Bromo-3-cyclopropyl-2-phenylquinolin-4-yl)carbonyl]amino}bicyclo[2.2.2]octane-1-carboxylic acid]: 51 nM; for `O=C(NC12CCC(C(=O)O)(CC1)CC2)c1c(Cl)c(-c2ccccc2)nc2ccc(Br)cc12` [Example 30, 4-{[(6-Bromo-3-chloro-2-phenylquinolin-4-yl)carbonyl]amino}bicyclo[2.2.2]octane-1-carboxylic acid]: 52 nM. The same measure for `CCCc1c(-c2ccccc2)nc2ccc(Br)cc2c1C(=O)NC12CCC(C(=O)O)(CC1)CC2` [Example 31, 4-{[(6-Bromo-2-phenyl-3-propylquinolin-4-yl)carbonyl]amino}bicyclo[2.2.2]octane-1-carboxylic acid]: 351 nM; for `O=C(NC12CCC(C(=O)O)(CC1)CC2)c1c(Cl)c(-c2ccccc2)nc2ccc(I)cc12` [Example 32, 4-{[(3-Chloro-6-iodo-2-phenylquinolin-4-yl)carbonyl]amino}bicyclo[2.2.2]octane-1-carboxylic acid]: 22 nM. `O=C(NC12CCC(C(=O)O)(CC1)CC2)c1c(C2CC2)c(-c2ccccc2)nc2ccc(I)cc12` [Example 33, 4-{[(3-Cyclopropyl-6-iodo-2-phenylquinolin-4-yl)carbonyl]amino}bicyclo[2.2.2]octane-1-carboxylic acid]: the IC50 was 51 nM.

With `Cc1c(-c2ccccc2)nc2ccc(C(F)(F)F)cc2c1C(=O)NC12CCC(C(=O)O)(CC1)CC2` [Example 34, 4-({[3-Methyl-2-phenyl-6-(trifluoromethyl)quinolin-4-yl]carbonyl}amino)bicyclo[2.2.2]octane-1-carboxylic acid], the IC50 is 505 nM.

For `O=C(NC12CCC(C(=O)O)(CC1)CC2)c1c(O)c(-c2ccccc2)nc2ccc(Br)cc12` [Example 35, 4-{[(6-Bromo-3-hydroxy-2-phenylquinolin-4-yl)carbonyl]amino}bicyclo[2.2.2]octane-1-carboxylic acid], the IC50 was 430 nM.

Turning to `Cc1c(-c2ccccc2)nc2ccc(Br)cc2c1C(=O)NC12CCC(C(N)=O)(CC1)CC2` [Example 36, 6-Bromo-N-(4-carbamoylbicyclo[2.2.2]oct-1-yl)-3-methyl-2-phenylquinoline-4-carboxamide], the IC50 is 553 nM. Regarding `Cc1c(-c2ccccc2)nc2ccc(Br)cc2c1C(=O)NC12CC(C(=O)O)(C1)C2` [Example 37, 3-{[(6-Bromo-3-methyl-2-phenylquinolin-4-yl)carbonyl]amino}bicyclo[1.1.1]pentane-1-carboxylic acid], the IC50 is 723 nM. As to `Cc1c(-c2ccccc2)nc2ccc(I)cc2c1C(=O)NC12CCC(C(=O)O)(CC1)C2` [Example 38, 4-{[(6-Iodo-3-methyl-2-phenylquinolin-4-yl)carbonyl]amino}bicyclo [2.2.1]heptane-1-carboxylic acid], the IC50 amounted to 1280 nM. As for `Cc1c(-c2ccccc2)nc2ccc(Br)cc2c1C(=O)NC12CCCC(C(=O)O)(CC1)CC2` [Example 39, 5-{[(6-Bromo-3-methyl-2-phenylquinolin-4-yl)carbonyl]amino}bicyclo[3.2.2]nonane-1-carboxylic acid], the IC50 was 230 nM. `O=C(NC12CCCC(C(=O)O)(CC1)CC2)c1c(Cl)c(-c2ccccc2)nc2ccc(Br)cc12` [Example 40, 5-{[(6-Bromo-3-chloro-2-phenylquinolin-4-yl)carbonyl]amino}bicyclo[3.2.2]nonane-1-carboxylic acid]: the IC50 turned out to be 195 nM. The same measure for `O=C(NC12CCCC(C(=O)O)(CC1)CC2)c1c(Cl)c(-c2ccccc2)nc2ccc(I)cc12` [Example 41, 5-{[(3-Chloro-6-iodo-2-phenylquinolin-4-yl)carbonyl]amino}bicyclo[3.2.2]nonane-1-carboxylic acid]: 48 nM. In the case of `O=C(NC12CCCC(C(=O)O)(CC1)CC2)c1c(C2CC2)c(-c2ccccc2)nc2ccc(I)cc12` [Example 42, 5-{[(3-Cyclopropyl-6-iodo-2-phenylquinolin-4-yl)carbonyl]amino}bicyclo[3.2.2]nonane-1-carboxylic acid], the IC50 worked out at 33 nM.

Turning to `Cc1c(-c2ccccc2)nc2ccc(Br)cc2c1C(=O)NC12C3C4C1C1C2C3C41C(=O)O` (centres unmarked) [Example 43, 4-{[(6-Bromo-3-methyl-2-phenylquinolin-4-yl)carbonyl]amino}cubane-1-carboxylic acid], the half-inhibitory concentration (IC50) was determined as 198 nM. For the molecule `Cc1c(-c2ccccc2)nc2ccc(I)cc2c1C(=O)NC12C3C4C1C1C2C3C41C(=O)O` (centres unmarked) [Example 44, 4-{[(6-Iodo-3-methyl-2-phenylquinolin-4-yl)carbonyl]amino}cubane-1-carboxylic acid], the IC50 was 73 nM. On to `O=C(NC12C3C4C1C1C2C3C41C(=O)O)c1c(Cl)c(-c2ccccc2)nc2ccc(Br)cc12` (centres unmarked) [Example 45, 4-{[(6-Bromo-3-chloro-2-phenylquinolin-4-yl)carbonyl]amino}cubane-1-carboxylic acid], for which the IC50 came to 161 nM. Turning to `Cc1c(-c2cc(Br)cs2)nc2ccc(Br)cc2c1C(=O)NC12CCC(C(=O)O)(CC1)CC2` [Example 52, 4-({[6-Bromo-2-(4-bromo-2-thienyl)-3-methylquinolin-4-yl]carbonyl}amino)bicyclo[2.2.2]octane-1-carboxylic acid], the IC50 was determined as 58 nM. The same measure for `Cc1ccc(-c2nc3ccc(Br)cc3c(C(=O)NC34CCC(C(=O)O)(CC3)CC4)c2C)s1` [Example 53, 4-({[6-Bromo-3-methyl-2-(5-methyl-2-thienyl)quinolin-4-yl]carbonyl}amino)bicyclo[2.2.2]octane-1-carboxylic acid]: 235 nM; for `Cc1c(-c2ccc(Cl)s2)nc2ccc(Br)cc2c1C(=O)NC12CCC(C(=O)O)(CC1)CC2` [Example 54, 4-({[6-Bromo-2-(5-chloro-2-thienyl)-3-methylquinolin-4-yl]carbonyl}amino)bicyclo[2.2.2]octane-1-carboxylic acid]: 240 nM; for `Cc1c(-c2ccc(Br)s2)nc2ccc(Br)cc2c1C(=O)NC12CCC(C(=O)O)(CC1)CC2` [Example 55, 4-({[6-Bromo-2-(5-bromo-2-thienyl)-3-methylquinolin-4-yl]carbonyl}amino)bicyclo[2.2.2]octane-1-carboxylic acid]: 383 nM. Take `C#Cc1ccc2nc(-c3ccccc3)c(C)c(C(=O)NC34CCC(C(=O)O)(CC3)CC4)c2c1` [Example 56, 4-{[(6-Ethynyl-3-methyl-2-phenylquinolin-4-yl)carbonyl]amino}bicyclo[2.2.2]octane-1-carboxylic acid]: the IC50 came out at 148 nM. The same measure for `Cc1c(-c2ccccc2)nc2ccc(Br)cc2c1C(=O)NC12CCC(C(=O)O)(CC1)C(=O)C2` [Example 57, 4-{[(6-Bromo-3-methyl-2-phenylquinolin-4-yl)carbonyl]amino}-2-oxobicyclo[2.2.2]octane-1-carboxylic acid]: 637 nM. As for `Cc1c(-c2ccccc2)nc2ccc(Br)cc2c1C(=O)NC12CCC(C(=O)O)(CC1)C(F)(F)C2` [Example 58, 4-{[(6-Bromo-3-methyl-2-phenylquinolin-4-yl)carbonyl]amino}-2,2-difluorobicyclo[2.2.2]octane-1-carboxylic acid], the IC50 turned out to be 668 nM. Regarding `Cc1c(-c2ccccc2)nc2ccc(Br)cc2c1C(=O)NC12CCC(C(=O)O)(CC1=O)CC2=O` [Example 63, 4-{[(6-Bromo-3-methyl-2-phenylquinolin-4-yl)carbonyl]amino}-3,5-dioxobicyclo [2.2.2]octane-1-carboxylic acid], the IC50 turned out to be 82 nM. Take `Cc1c(-c2ccccc2)nc2ccc(I)cc2c1C(=O)NC12CCC(C(=O)O)(CC1)OC2` [Example 64, 4-{[(6-Iodo-3-methyl-2-phenylquinolin-4-yl)carbonyl]amino}-2-oxabicyclo [2.2.2]octane-1-carboxylic acid]: the IC50 is 762 nM.

(Values after patent publication US10117864B2, “Substituted N-bicyclo-2-aryl-quinolin-4-carboxamides and use thereof” (BAYER PHARMA AKTIENGESELLSCHAFT, priority 2015, dated 2018).)
